# Test results as given in patent US9895344B2, “Treating various disorders with 7,8-dihydroxyflavone and derivatives thereof” (EMORY UNIVERSITY, priority 2008, dated 2018).
# Assays:
# [1] = test system: immobility; test: Forced swim test after 21 days oral treatment; type: in vivo, C57BL/6J mice; settings: 5 mg/kg, oral injection, FIG. 34
# Experimental: Adult male mice (2-3 months old) were randomly submitted to a forced swim test without a pre-swim. Saline, 4′-DMA-7,8-DHF and 7,8-DHF (5 mg/kg) were orally injected for 21 days. The mice were allowed to adapt to the test room for 2 days. The mice were placed in a clear glass cylinder with a diameter of 16 cm, half-filled with clear water at 24° C.
# To explore whether 4′-DMA-7,8-DHF and 7,8-DHF have any antidepressant effect, a forced swim test (6 minutes, immobility recorded in the last 4 minutes) was conducted after chronic treatment of male C57BL/6J mice (8 mice/group) for 21 days via oral injection.
# [2] = test system: Caspase-3 activation; test: Caspase-3 activation in wild-type and TrkC-/- cortical neurons; type: cell-based, mice; settings: FIG. 22 row 5
# Experimental: To further assess whether 7,8-dihydroxyflavone blocks neuronal apoptosis in a TrkB dependent manner, cortical neurons were prepared from homozygous pups of TrkC+/−mice, which were mated to the same genotype. […] Glutamate weakly stimulated both TrkA and TrkB faint phosphorylation regardless of TrkC genotype (FIG. 22, rows 1 and 3). The spontaneous caspase-3 activation in TrkC−/− neurons was suppressed by 7,8-dihydroxyflavone (FIG. 22, row 5).
# [3] = molecular target: T1, TrkB (Mus musculus, UniProt P15209); test: Trk activation in cortical neurons from wild-type and TrkB-null pups: TrkB; type: cell-based, mice; settings: wild-type but not TrkB-null neurons, FIG. 21
# T1 construct: from tissue; host or cells: mouse brain
# Experimental: To determine whether 7,8-dihydroxyflavone can selectively activate TrkB receptor and prevent neuronal cell death, cortical neurons were prepared from homozygous pups of TrkB+/−mice, which were mated to the same genotype. […] Glutamate nonselectively elicited weak TrkA phosphorylation in both wild-type and TrkB-null neurons (FIG. 21, row 3).
# [4] = molecular target: GST-TrkB ICD (Rattus norvegicus, UniProt Q63604); test: In vitro binding assay with immobilized GST-TrkB ICD on glutathione beads, UV-spectrometry of eluate; settings: 500 nM, 4° C., 30 minutes, FIG. 17
# Experimental: To further explore the association of 7,8-dihydroxyflavone and the TrkB receptor, an in vitro binding assay was performed. Increasing volumes of GST-TrkB ECD and GST-TrkB ICD were bound to glutathione beads to a total of 250 uL, and 500 nM 7,8-dihydroxyflavone in 250 μl (20% DMSO/80% PBS) was incubated with the beads in the column at 4° C. for 30 minutes. After the incubation, the elute fractions were collected and the concentration of eluted 7,8-dihydroxyflavone was analyzed by UV-spectrometry at a wavelength of 410 nm.
# [5] = molecular target: T1, TrkB; test: Time course of TrkB activation in mouse brain; type: in vivo, C57BL/6J mice; settings: 1 mg/kg, oral injection, FIG. 28
# Experimental: To compare the stimulatory effect on TrkB receptor in mouse brain, 1 mg/kg of these compounds was injected into C57BL/6J mice and monitored TrkB activation at different time points (see FIG. 28). […] In contrast, 7,8-DHF triggered TrkB activation 2 h after oral injection and peaked at 4 h and TrkB activity progressively faded away. The TrkB activity was demonstrable even at 16 h (FIG. 28).
# [6] = molecular target: T2, TrkB ECD truncates (Rattus norvegicus, UniProt Q63604); test: Mapping assay with TrkB ECD truncation mutants; type: binding; settings: FIG. 18
# T2 construct: made in house
# Experimental: (§1) BDNF is known to bind to the region of the TrkB ECD that contains the third leucine-rich motif (LRM), the second cysteine cluster (CC) domain, and the Immunoglobulin 2 (Ig2) domain (Haniu et al., J. Biol. Chem., 272:25296-303, 1997). To map where 7,8-dihydroxyflavone binds on the TrkB ECD, truncation mutants of the ECD were made and in vitro binding assays were conducted.
# [7] = test system: TrkB ECD truncates; test: Mapping assay with TrkB ECD truncation mutants; type: binding; settings: FIG. 18
# Experimental: as §1
# [8] = test system: KA-induced neuronal apoptosis; test: Kainic acid time course assay, oral TrkB agonists (caspase-3 immunoblot of brain lysates); type: in vivo, C57BL/6J mice; settings: 1 mg/kg orally, KA 20 mg/kg i.p., FIG. 30 right
# Experimental: Male C57BL/6 mice age 60 days were orally injected with a single dose of 4′-DMA-7,8-DHF or 7,8-DHF (1 mg/kg each). KA (20 mg/kg) was i.p. injected. Animals were continually monitored for 2 hours for the onset of seizure activity. At 0, 4 and 8 hours following TrkB agonist treatment, the animals were sacrificed and the brain lysates were analyzed by immunoblotting with p-TrkB-Y817, active caspase-3 and total TrkB antibodies.
# To investigate whether these compounds exert any neuroprotective effects in animals, a time course assay was conducted.
# [9] = molecular target: T1, TrkB; test: TrkB activation in mouse brain after intraperitoneal injection; type: in vivo, mice; settings: 5 mg/kg intraperitoneally
# Experimental: To assess whether 7,8-dihydroxyflavone can provoke TrkB activation in the brain, mice were intraperitoneally injected with a dose of 5 mg/kg and analyzed at various time points. […] Further, as shown in FIG. 12 (right panel), the protein and mRNA levels of the neurotrophic receptors were not altered after treatment with 7,8-dihydroxyflavone.
# [10] = test system: KA-induced apoptosis in hippocampus; test: Kainic acid-induced apoptosis in mouse hippocampus (TUNEL); type: in vivo, C57BL/6 mice; settings: 5 mg/kg intraperitoneally followed by 20 mg/kg KA, 5 days, FIG. 19
# Description: Kainic acid (KA) is a potent agonist for the AMPA receptor. Peripheral injections of KA result in recurrent seizures and the subsequent degeneration of select populations of neurons in the hippocampus (Schauwecker and Steward, Proc. Natl. Acad. Sci. USA, 94:4103-8, 1997). KA induces neuronal cell death in a caspase-dependent and independent manners (Faherty et al., Brain Res. Mol. Brain. Res., 70:159-63, 1999; Glassford et al., Neurol. Res., 24:796-800, 2002; Liu et al., Mol. Cell, 29:665-78, 2008). To explore whether 7,8-dihydroxyflavone can block the neurotoxicity initiated by KA, C57BL/6 mice aged 60 days were intraperitoneally injected with either a single dose of 20% DMSO in saline, 20 mg/kg KA (Sigma), or 5 mg/kg of 7,8-dihydroxyflavone followed by 20 mg/kg of KA. In 5 days, the mice were anesthetized, perfused with 4% paraformaldehyde in 0.1M phosphate buffered saline, and the brains were removed, post-fixed overnight, and processed for paraffin embedding. Serial sections of the brain were cut to a thickness of 5 μm and mounted on slides (Superfrost-plus, Fisher; Pittsburgh, Pa.).
# T1 sequence (P15209 32-821): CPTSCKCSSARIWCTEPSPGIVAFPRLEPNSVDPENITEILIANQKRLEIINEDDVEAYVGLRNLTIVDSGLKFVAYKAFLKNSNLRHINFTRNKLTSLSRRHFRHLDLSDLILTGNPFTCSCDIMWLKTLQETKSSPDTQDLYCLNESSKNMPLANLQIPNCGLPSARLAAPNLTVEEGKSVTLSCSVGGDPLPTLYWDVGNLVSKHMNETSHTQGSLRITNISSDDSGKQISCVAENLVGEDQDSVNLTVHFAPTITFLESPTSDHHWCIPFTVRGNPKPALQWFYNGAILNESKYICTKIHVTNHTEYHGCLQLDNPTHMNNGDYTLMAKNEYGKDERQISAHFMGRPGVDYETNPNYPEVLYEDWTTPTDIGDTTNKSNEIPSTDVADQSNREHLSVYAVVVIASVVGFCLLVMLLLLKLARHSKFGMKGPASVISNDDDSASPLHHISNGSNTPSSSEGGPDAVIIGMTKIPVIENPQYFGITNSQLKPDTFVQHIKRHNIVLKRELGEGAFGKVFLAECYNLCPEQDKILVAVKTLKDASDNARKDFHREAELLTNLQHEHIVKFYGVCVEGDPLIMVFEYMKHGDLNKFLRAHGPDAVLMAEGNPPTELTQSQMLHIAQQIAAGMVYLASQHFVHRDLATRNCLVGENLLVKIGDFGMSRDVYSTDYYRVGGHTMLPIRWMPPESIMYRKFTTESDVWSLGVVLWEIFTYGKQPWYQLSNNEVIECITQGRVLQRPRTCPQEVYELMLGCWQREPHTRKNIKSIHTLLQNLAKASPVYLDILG
# Sequence of GST-TrkB ICD (Q63604 454-821): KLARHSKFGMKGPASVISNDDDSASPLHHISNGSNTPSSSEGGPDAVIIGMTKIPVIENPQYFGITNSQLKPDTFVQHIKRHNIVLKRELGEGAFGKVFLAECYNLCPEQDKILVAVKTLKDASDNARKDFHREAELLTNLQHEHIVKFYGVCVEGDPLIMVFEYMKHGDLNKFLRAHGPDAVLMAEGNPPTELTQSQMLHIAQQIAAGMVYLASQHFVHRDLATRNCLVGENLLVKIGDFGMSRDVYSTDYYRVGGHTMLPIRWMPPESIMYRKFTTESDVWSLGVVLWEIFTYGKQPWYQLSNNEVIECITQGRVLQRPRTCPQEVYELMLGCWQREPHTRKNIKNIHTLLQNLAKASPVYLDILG
smiles,measurement,setting,value
"O=c1cc(-c2ccccc2)oc2c(O)c(O)ccc12 [7,8-dihydroxyflavone]",swimming immobility,[1],significantly decreased
same,spontaneous caspase-3 activation in TrkC-/- neurons,[2],suppressed
same,glutamate-triggered caspase-3 activation,[2]; regardless of TrkC genotype,significantly diminished
same,TrkB activation in wild-type neurons,[3],specifically activates TrkB
same,concentration of eluted compound as GST-TrkB ICD volumes increased,[4],remained constant
same,TrkB activity at 16 h,[5],demonstrable
same,time at which TrkB activation was elicited,[5],2 h
same,time at which TrkB activity peaked,[5],4 h
same,association with the ECD,[6],strongly associated
same,binding to the ICD,[6],did not bind
same,association with the CC-2 domain,[7],strongly associated
same,association with the LRM-domain,[7],associated less strongly
same,binding to the CC-1 domain,[7],did not bind
same,KA-induced caspase-3 activation at 4 h,[8],reduced
same,active caspase-3 at 8 h,[8],slightly increased
same,TrkB phosphorylation in the brain,"[9]; 2 hours after injection, FIG. 12",selectively phosphorylated
same,protein and mRNA levels of the neurotrophic receptors,[9]; FIG. 12 right,not altered
same,TrkB phosphorylation in the hippocampus (immunofluorescent staining),[9]; FIG. 13,substantial TrkB phosphorylation
same,KA-induced apoptosis in hippocampus,[10],decreased KA-induced apoptosis
